By IC50 is commonly meant the midpoint of a concentration-inhibition curve. The low end stands for greater potency in that assay, the high end for weaker potency in that assay. By inhibition is commonly meant the drop in the measured response relative to a control, in per cent.

From US11911353B2, “Fatty acid synthase inhibitor and application thereof” (Jiangnan University, priority 2019, dated 2024) come the findings set out here.

Assay type in all cases: cell-based
The target in assay [1] is T1, fatty acid synthase (FASN) in colon cancer cells HCT116 (Homo sapiens, UniProt P49327).
T1 construct: endogenous in cells; host or cells: HCT116 colon cancer cells
As to the kind of experiment: FASN enzyme activity detection in treated HCT116 cells (NADPH absorbance at 340 nm). Particulars: for inhibition at 20 µM: HCT-116, 4 hours of incubation, read-out: FASN enzyme activity inhibition rate (%).

Assay [2] deals with prostate cancer cells PC-3. The assay can be described thus: MTT tumor proliferation IC50, PC-3. Conditions: 72 hours of incubation. The source says:
(§1) IC50 (half maximal inhibitory concentration) refers to the half inhibitory concentration of a measured antagonist. It can indicate that a certain concentration of a certain drug or substance (inhibitor) induces tumor cell apoptosis by 50%, and this concentration is referred to as 50% inhibitory concentration, namely, the corresponding concentration when the ratio of apoptotic cells to the total number of cells is equal to 50%. The IC50 value can be used to measure the ability of a drug to induce apoptosis, that is, the higher the inducing ability, the lower the value, which also can indicate the tolerance degree of a certain cell to a drug on the contrary. • (1) Cells in the logarithmic phase are collected, the concentration of a cell suspension is adjusted, it is appropriate to place 100 μl cells in each well of a 96-well plate, the cells are inoculated into the plate to adjust the density of to-be-detected cells to be 1000-10000 cells/well, and edge wells are filled with sterile PBS. • (2) The cells are incubated under 5% CO2 at 37° C., an original culture medium is discarded after complete cell adherence, 200 μl of 1 wt % FBS culture medium containing 0.01 μM, 0.1 μM, 1 μM, 5 μM and 10 μM compound I-1 or cerulenin is added into each well, and there are 6 wells run in duplicate. An equal volume of DMSO is added as a negative control. • (3) After 72 hours of incubation, the cells are photographed for state recording, an original culture medium is discarded, and 100 μl of serum-free culture medium containing 0.5 mg/ml MTT (3-(4,5-dimethylthiazole-2)-2,5-diphenyltetrazolium bromide, trade name thiazolyl blue) is added into each well. • (4) After 2-4 hours of incubation, an original culture medium is discarded, and 150 μl of dimethyl sulfoxide (DMSO) is added into each well and shaken at 300 rpm for 10 minutes to fully dissolve purple crystals. • (5) The absorbance of each well at OD570 nm is measured by an enzyme-linked immunodetection instrument, the absorbance at OD630 nm is used as a reference, dual-wavelength measurement is carried out, and survival rate results are calculated according to the following formula: Cell survival rate=(OD570−OD630)/(OD570 negative control−OD630 negative control);
(§2) wherein, OD570: OD570 value of each treatment group; OD630: OD630 value of each treatment group; OD570 control: OD570 value of the negative control group; OD630 control: OD630 value of the negative control group. • (6) The survival rate results are processed with graphpad 6.0 software according to the concentration gradient, the analysis mode is log (inhibitor) vs. Nonlinear regression (curve fit), and the calculated IC50 value is expressed as x+/−SD.
(§3) The FASN enzyme activity measurement method shown in Experimental Example 18 is used to detect the effects of different substances on FASN enzyme activity. The method shown in Experimental Example 19 is used to detect the effects of different substances on the proliferation of tumor cells, cerulenin is used as a control, and the inhibition rates (%) of different substances on FASN enzyme activity and inhibition rates (IC50 nM) on tumor proliferation are calculated.

The test system of assay [3] is colon cancer cells HCT116. The assay can be described thus: MTT tumor proliferation IC50, HCT116.
From the text: as §1, §2, §3

In assay [4] the test system is tumor cells 22RV1, PC-3, HT-29, Hela, Hep G2, CaCo-2 and HCT116. As to the kind of experiment: MTT proliferation of various tumor cells at single concentration (FIG. 2). Particulars: 10 μM, 72 hours, 7 different tumor cells. The source says:
Cell survival rate=(OD570−OD630)/(OD570 negative control−OD630 negative control); wherein, OD570: OD570 value of each treatment group; OD630: OD630 value of each treatment group; OD570 control: OD570 value of the negative control group; OD630 control: OD630 value of the negative control group.

The mark [5] stands for this setting: Homo sapiens, HCT-116, 72 hours of incubation.

T1 sequence (P49327 whole entry): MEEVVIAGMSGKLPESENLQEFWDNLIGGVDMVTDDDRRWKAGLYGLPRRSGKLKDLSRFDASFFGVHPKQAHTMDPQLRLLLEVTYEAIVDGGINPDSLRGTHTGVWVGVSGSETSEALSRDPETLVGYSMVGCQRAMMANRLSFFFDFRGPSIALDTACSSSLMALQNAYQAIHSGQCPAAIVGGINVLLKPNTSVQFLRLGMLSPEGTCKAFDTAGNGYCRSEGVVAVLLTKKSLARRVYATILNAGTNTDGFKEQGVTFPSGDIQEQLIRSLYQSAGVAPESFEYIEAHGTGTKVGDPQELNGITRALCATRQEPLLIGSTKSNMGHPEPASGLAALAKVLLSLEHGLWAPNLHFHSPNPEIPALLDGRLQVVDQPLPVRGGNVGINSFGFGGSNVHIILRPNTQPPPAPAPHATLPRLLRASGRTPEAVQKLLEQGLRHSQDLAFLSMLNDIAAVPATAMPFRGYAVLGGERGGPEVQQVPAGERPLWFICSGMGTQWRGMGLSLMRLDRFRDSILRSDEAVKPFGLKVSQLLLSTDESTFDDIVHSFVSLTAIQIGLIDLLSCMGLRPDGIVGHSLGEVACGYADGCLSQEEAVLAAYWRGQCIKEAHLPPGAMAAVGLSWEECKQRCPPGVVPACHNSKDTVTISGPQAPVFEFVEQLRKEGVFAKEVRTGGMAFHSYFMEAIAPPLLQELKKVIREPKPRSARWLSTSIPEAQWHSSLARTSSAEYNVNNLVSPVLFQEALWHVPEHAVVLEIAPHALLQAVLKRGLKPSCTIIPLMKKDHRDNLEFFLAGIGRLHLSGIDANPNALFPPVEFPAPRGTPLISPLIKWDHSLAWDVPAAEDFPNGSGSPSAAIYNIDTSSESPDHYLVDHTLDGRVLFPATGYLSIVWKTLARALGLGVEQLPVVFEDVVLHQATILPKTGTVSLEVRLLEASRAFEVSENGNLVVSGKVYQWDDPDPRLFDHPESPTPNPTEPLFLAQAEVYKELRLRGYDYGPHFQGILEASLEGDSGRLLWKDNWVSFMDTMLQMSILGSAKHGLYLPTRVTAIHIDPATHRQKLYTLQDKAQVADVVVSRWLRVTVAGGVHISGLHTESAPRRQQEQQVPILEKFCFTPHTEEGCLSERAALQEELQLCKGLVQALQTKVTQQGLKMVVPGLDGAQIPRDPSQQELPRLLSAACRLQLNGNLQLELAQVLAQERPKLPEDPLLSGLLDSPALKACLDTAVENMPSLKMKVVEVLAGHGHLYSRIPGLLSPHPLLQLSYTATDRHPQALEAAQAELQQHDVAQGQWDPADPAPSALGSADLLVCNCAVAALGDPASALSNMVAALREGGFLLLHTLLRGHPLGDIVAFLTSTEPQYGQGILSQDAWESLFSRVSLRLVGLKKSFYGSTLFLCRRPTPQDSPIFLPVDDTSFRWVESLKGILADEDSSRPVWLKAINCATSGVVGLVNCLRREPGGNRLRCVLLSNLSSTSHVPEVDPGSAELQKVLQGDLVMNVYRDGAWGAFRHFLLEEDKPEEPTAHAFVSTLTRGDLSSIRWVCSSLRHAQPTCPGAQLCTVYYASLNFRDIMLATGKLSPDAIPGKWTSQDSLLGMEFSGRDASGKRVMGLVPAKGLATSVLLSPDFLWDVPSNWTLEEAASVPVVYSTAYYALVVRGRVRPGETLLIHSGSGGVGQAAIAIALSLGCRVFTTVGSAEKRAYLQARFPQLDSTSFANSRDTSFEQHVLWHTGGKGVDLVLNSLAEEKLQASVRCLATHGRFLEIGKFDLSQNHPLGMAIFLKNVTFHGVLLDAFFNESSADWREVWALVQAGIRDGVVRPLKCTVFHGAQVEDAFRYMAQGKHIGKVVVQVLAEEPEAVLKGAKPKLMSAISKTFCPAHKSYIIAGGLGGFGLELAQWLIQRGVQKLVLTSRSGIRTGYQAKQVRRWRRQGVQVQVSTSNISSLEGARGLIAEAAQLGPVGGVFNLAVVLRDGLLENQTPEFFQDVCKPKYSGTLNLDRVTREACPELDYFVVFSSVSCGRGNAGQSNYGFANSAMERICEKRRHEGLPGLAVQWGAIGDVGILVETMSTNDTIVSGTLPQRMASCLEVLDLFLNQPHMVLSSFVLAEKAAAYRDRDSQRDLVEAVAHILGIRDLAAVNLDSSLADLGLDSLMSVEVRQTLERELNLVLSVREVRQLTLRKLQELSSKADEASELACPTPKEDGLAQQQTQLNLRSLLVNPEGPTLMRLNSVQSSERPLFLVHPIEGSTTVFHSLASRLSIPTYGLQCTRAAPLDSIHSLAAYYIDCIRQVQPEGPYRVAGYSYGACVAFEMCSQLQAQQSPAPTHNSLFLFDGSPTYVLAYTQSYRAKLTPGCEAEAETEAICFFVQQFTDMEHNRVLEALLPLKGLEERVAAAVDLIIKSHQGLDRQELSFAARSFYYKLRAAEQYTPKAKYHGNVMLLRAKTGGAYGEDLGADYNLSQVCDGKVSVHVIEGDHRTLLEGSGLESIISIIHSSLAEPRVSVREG

Turning to “5-(4-bromophenylamino)-5-oxopentanoic acid [Intermediate 1]”, the “FASN enzyme activity inhibition rate (%)” value in assay [1] (20 μM, 4 hours of incubation) is reported as 31.87%. The IC50 amounted to 15 ± 1.3 nM in assay [2] and 19 ± 2.1 nM in assay [3] (72 hours of incubation).

For `C/C=C/C/C=C/CCC(=O)[C@H]1O[C@H]1C(N)=O` [Cerulenin, cerulenin, reference compound], in assay [1], the inhibition at 20 µM came to 21.3%. Also, the half-inhibitory concentration (IC50) in assay [2] was found to be 18 ± 2.7 nM; in assay [3] (setting [5]) it was 29 ± 3.2 nM. Besides, the “effect on proliferation of tumor cells” value in assay [4] is listed as “no significant effect on the proliferation of some tumor cells”.

Take `C=C1C(=O)OC(CCCCCCCC)C1C(=O)O` (centres unmarked) [Compound C75, C75]: in assay [4], the “effect on proliferation of tumor cells” value was “no significant effect on the proliferation of some tumor cells”.

As to `COc1ccc(Br)cc1CNC(=O)NCCCC(=O)Nc1ccc(Br)cc1` [Compound I-2], the inhibition at 20 µM in assay [1] came out at 30.7%. Further, the IC50 amounted to 16 ± 2.9 nM in assay [2] and 21 ± 1.6 nM in assay [3] (setting [5]).

Consider `O=C(CCCNC(=O)NCc1cc(Br)ccc1O)Nc1ccc(Br)cc1` [Compound I-3], for which the inhibition at 20 µM in assay [1] is 41.2%. Also, the IC50 was 14 ± 2.8 nM in assay [2] and 15 ± 2.5 nM in assay [3] (setting [5]).

For the compound `O=C(CCCC(=O)Nc1ccc(Br)cc1)NNC(=O)c1cc(Br)ccc1O` [Compound I-4], the inhibition at 20 µM in assay [1] is 49%. Further, the concentration for half-maximal inhibition (IC50) was found to be 11 ± 1.8 nM in assay [2] and 14 ± 1.7 nM in assay [3] (setting [5]).

As for `O=C(CCC(=O)Nc1ccccc1)/N=C/c1ccccc1` [Compound I-6], the inhibition at 20 µM in assay [1] turned out to be 41.9%. Moreover, the results for the IC50 in assay [2] and in assay [3] (setting [5]) were 15 ± 1.8 nM and 17 ± 2.7 nM, respectively.

As for `O=C(CCC(=O)Nc1ccccc1)NC(=O)c1ccccc1` [Compound I-7], the inhibition at 20 µM in assay [1] came out at 37.7%. The IC50 in assay [2] is 15 ± 2.1 nM; in assay [3] (setting [5]) it was 19 ± 1.9 nM.

`O=C(CCC(=O)Nc1ccccc1)/N=C/Cc1ccccc1` [Compound I-8]: the inhibition at 20 µM in assay [1] was determined as 35.2%. Also, the values for the half-maximal inhibitory concentration (IC50) in assay [2] and in assay [3] (setting [5]) were 16 ± 1.7 nM and 20 ± 3.5 nM, respectively.

In the case of `CCOC(=O)CCCC(=O)Nc1ccc(Br)cc1` [Intermediate 2, Ethyl 5-(4-bromophenylamino)-5-oxopentanoate], in assay [1], the inhibition at 20 µM is 22.2%. In addition, the concentration for half-maximal inhibition (IC50) was determined as 18 ± 2.5 nM in assay [2] and 22 ± 3.1 nM in assay [3] (setting [5]).
